Measured values reported in ChEMBL document CHEMBL4002587 (Eur J Med Chem, 2017).

Assays:
Prothrombin = Prothrombin (Homo sapiens, UniProt P00734); experiment: Inhibition of human thrombin preincubated for 10 mins followed by Ac-FVR-AMC substrate addition measured every 20s for 10 mins by fluorescence assay
[1] = Oral bioavailability in human at 10 to 400 mg administered as single dose measured after 24 hrs; format: ADME, organism-based; settings: in vivo
Rattus norvegicus = species on record: Rattus norvegicus; experiment: Anti-thrombotic activity in Sprague-Dawley rat assessed as inhibition of arteriovenous thrombosis weight at 0.5 mg/ml relative to control; format: functional

Compound	IC50 (Prothrombin)	bioavailability [1]	inhibition (INH) (Rattus norvegicus)
Cn1c(CNc2ccc(C(=N)N)cc2F)nc2cc(C(=O)N(CCC(=O)O)c3cc(F)cc(F)c3)ccc21	1.18 nM		
Cc1ccc(C)c(N(CCC(=O)O)C(=O)c2ccc3c(c2)nc(CNc2ccc(C(=N)N)cc2F)n3C)c1	3.35 nM		
Cn1c(CNc2ccc(C(=N)N)cc2)nc2cc(C(=O)N(CCC(=O)O)c3ccccn3)ccc21 [DABIGATRAN]		6.5%	85.07%
Cc1cccc(C)c1N(CCC(=O)O)C(=O)c1ccc2c(c1)nc(CNc1ccc(C(=N)N)cc1F)n2C	12.8 nM		
Cc1ccnc(N(CCC(=O)O)C(=O)c2ccc3c(c2)nc(CNc2ccc(C(=N)N)cc2F)n3C)c1	3.33 nM		
Cc1cccc(N(CCC(=O)O)C(=O)c2ccc3c(c2)nc(CNc2ccc(C(=N)N)cc2F)n3C)n1	1.42 nM		84.57%
Cc1cccc(N(CCC(=O)O)C(=O)c2ccc3c(c2)nc(CNc2ccc(C(=N)N)cc2F)n3C)c1	2.26 nM		
Cn1c(CNc2ccc(C(=N)N)cc2F)nc2cc(C(=O)N(CCC(=O)O)c3ccc(F)cc3F)ccc21	0.84 nM		
Cc1cc(N(CCC(=O)O)C(=O)c2ccc3c(c2)nc(CNc2ccc(C(=N)N)cc2F)n3C)ccc1F	3.2 nM		
Cn1c(CNc2ccc(C(=N)N)cc2F)nc2cc(C(=O)N(CCC(=O)O)c3ccc(F)c(F)c3)ccc21	14.6 nM		
Cc1cccc(N(CCC(=O)O)C(=O)c2ccc3c(c2)nc(CNc2ccc(C(=N)N)cc2F)n3C)c1C	1.54 nM		84.24%
Cc1cc(C)cc(N(CCC(=O)O)C(=O)c2ccc3c(c2)nc(CNc2ccc(C(=N)N)cc2F)n3C)c1	3.7 nM		
